# In PMC12467382, “Synthesis and Bioevaluation of Chalcones as Broad-Spectrum Antiviral Compounds Against Single-Stranded RNA Viruses” (Biomolecules, 2025):
# Legend:
# PIV5-GFP [1] = assay: Western blotting for PIV5 NP and P proteins in infected Hs27 cells; format: cell-based, parainfluenza virus 5; settings: 10 µM before and after infection; high MOI; lysates at 24 hpi
# Source text: Hs27 (human skin fibroblast) cells cultured in 6-well dishes were lysed using protein lysis buffer. Cell lysates were resolved on 12% sodium dodecyl sulfate-polyacrylamide gel electrophoresis (SDS-PAGE) gels and transferred to nitrocellulose membranes (Bio-Rad, Hercules, CA, USA). After normalizing samples via western blotting for β-actin (1:20,000 dilution, catalog number A5316, Sigma-Aldrich, St. Louis, MO, USA), samples were probed with rabbit polyclonal antibodies for the PIV5 NP (1:2000) and P proteins (1:2000). Blots were visualized using anti-mouse horseradish peroxidase (HRP)-conjugated antibodies (Sigma-Aldrich) and chemiluminescence (Thermo Fisher Scientific).
# The above experiments utilized GFP expression and flow cytometry as an assay for observing the effects of chalcones on viral protein expression. To extend this analysis to bona fide viral proteins, cells were left untreated, DMSO-treated, or treated with the chalcone 8o at 10 μM for 24 h. Cells were then infected with PIV5-GFP at a high MOI and then cultured in control media or media supplemented with 8o.
# PIV5-GFP [2] = assay: RT-qPCR of PIV5 genes (F, HN, NP) in infected Hs27 cells; format: cell-based, parainfluenza virus 5; settings: 10 µM before and after infection, MOI 10, normalized to actin
# Description: Hs27 cells cultured in 6-well dishes were collected in TRIzol® (Invitrogen) followed by RNA extraction. To produce cDNA, 1 μg of total RNA was used with TaqMan® Reverse Transcription Reagents (Applied Biosystems, Foster City, CA, USA) as described in the manufacturer’s instructions. Quantitative real-time PCR was performed using Bio-Rad CFX Connect Real-Time (Bio-Rad, Hercules, CA, USA) and Fast SYBR® FAST Green Master Mix (Applied Biosystems, Foster City, CA, USA). Relative gene expression was determined using CFX Manager Software (Bio-Rad, version 2.3) and the following primers (Table 1).
# To better understand how the chalcones were inhibiting virus growth, RT-qPCR was utilized to determine the effect of chalcone treatment on viral gene expression. Hs27 cells were treated with DMSO as a control or treated with 8o at a concentration of 10 µM. At 24 hpt, cells were mock infected or infected with PIV5-GFP at a high MOI and immediately replaced with media supplemented with 8o. Total RNA was collected at 2, 5, and 10 hpi and used in RT-qPCR assays to measure levels of the PIV5 genes: fusion (F) protein, hemagglutinin-neuraminidase (HN) protein, and nucleocapsid (NP) protein. Collection at various time points allows one to kinetically distinguish between the chalcone-mediated inhibition of early and late viral gene expression. Values were normalized to actin and were set relative to the DMSO-treated control of each corresponding time point.
# [3] = tested on: human immunodeficiency virus (HIV); design: method as in PMID 27161874; settings: cited from earlier work
smiles,measurement,setting,value
CCOc1ccc(Br)cc1/C=C/C(=O)c1c(O)cccc1OCc1ccccc1 [Chalcone 8o],PIV5 NP and P viral protein levels,PIV5-GFP [1],very little viral protein
same,"Viral gene expression (F, HN, NP) vs DMSO-treated control at 2 hpi",PIV5-GFP [2],minimal differences
same,Reduction in viral gene expression at 5 hpi,PIV5-GFP [2]; relative to DMSO,~ 5 fold
same,Reduction in viral gene expression at 10 hpi,PIV5-GFP [2]; relative to DMSO,greater than 100 fold
same,Antiviral activity against HIV,[3],had efficacy as an antiviral agent
